System: psoriasis
Test: Separate tests of the single agents for treating psoriasis
Assay type: in vivo, human
Details: agent used alone
Description: Salicylic acid alone was ineffective.

SMILES | efficacy for treating psoriasis
Cl[Te]1(Cl)(Cl)OCCO1.N [ammonium trichloro (dioxoethylene-O,O′) tellurate] | effective for treating psoriasis but worked very slowly
O=C(O)c1ccccc1O [Salicylic acid, salicylic acid] | ineffective

From patent publication US6472381B1, “Method of treating psoriasis” (Biomas Inc., priority 2001, dated 2002)
